Earlier results, collected in article PMC10080691, “Enzyme-Responsive Double-Locked Photodynamic Molecular Beacon for Targeted Photodynamic Anticancer Therapy” (Journal of the American Chemical Society, 2023).

Assays:
[1] = in DMF; reference standard value; cited from earlier work
Text: The singlet oxygen generation efficiency of 1 was then studied and compared with that of 8, 14, and ZnPc in all these media using 1,3-diphenylisobenzofuran (DPBF) as the singlet oxygen probe.[67] The absorbance of DPBF’s absorption at 415 nm (in DMF) or 417 nm (in PBS and the buffer) was monitored during light irradiation (λ > 610 nm). Figures S4–S6 show the changes in the absorption spectra of the mixtures in DMF, PBS, and the buffer, respectively, upon irradiation. It can be seen that in all these media while 8 and ZnPc could effectively sensitize the formation of singlet oxygen to induce su ...

[2] = in DMF; reference standard value; cited from earlier work; remark: listed apart in the source
Text: The electronic absorption and fluorescence spectra of PMB 1 were first recorded in DMF and compared with those of the components 8 and 11, as well as the non-cleavable analogue 14 (Figure S2 and Table 1). […] In ...

## [Zn+2].c1ccc2c(c1)-c1nc-2nc2[n-]c(nc3nc([n-]c4nc(n1)-c1ccccc1-4)-c1ccccc1-3)c1ccccc21 [ZnPc, zinc(II) phthalocyanine]
[1]
  ΦΔ (singlet oxygen quantum yield) of reference: 0.56
[2]
  ΦF (fluorescence quantum yield) of reference: 0.28
